Converted amounts (≈) assume the structure as drawn. Marks after values point to notes of the source that are not given here.
Tests used:
[1] = system: intracellular APEC O78, O2, and O1 in infected Caco-2, HD11, and THP1 cells; test: Intracellular survival assay, statements over all serotypes and cells; assay type: cell-based, Escherichia coli; conditions: Escherichia coli, 6 h, O78, O2 and O1; Caco-2, HD11, THP-1; 6 h; read-out: concentration clearing intracellular APEC
Method: (§1) Intracellular survival assay was conducted as described previously[28],[29] to determine the effect of cidal SMs on APEC survival in phagocytic (HD11, THP-1) and non-phagocytic (Caco-2) cells. Briefly, mid-logarithmic phase grown APEC O78, O1, and O2 were washed and adjusted to 1 × 10^7 CFU/mL in cell culture incomplete media (no FBS and antibiotics). One-hundred microlitres adjusted APEC suspension was added at multiplicity of infection (MOI) 10 to wells of 96-well cell culture plate containing cultured macrophage (HD11, THP-1) and epithelial cells (Caco-2) and incubated for 1 h and 3 h, respectively. […] The cells were then lysed with 100 µL of 0.1% Triton X-100 for 5 mins, serially diluted, and plated on LB agar plate to enumerate viable bacteria. The intracellular bacteria in SMs treated wells were compared with DMSO (1%) treated wells. Two independent experiments in duplicate wells for each concentration of SMs were conducted.

APEC O78 [2] = test: Loss of 260/280 nm absorbing materials assay; assay type: cell-based, Escherichia coli; conditions: 2X MBC, 1 h
Method: Membrane permeability assays (crystal violet (CV) uptake and loss of 260/280 nm absorbing materials) were conducted as described previously. […] CV uptake was measured using the formula: (OD DMSO − OD SM/OD DMSO × 100). Two independent experiments in duplicates were conducted.

APEC O115 = test: MIC and MBC determination in M63 media; assay type: cell-based; conditions: Escherichia coli
APEC O2 = test: MIC and MBC determination in M63 media; assay type: cell-based; conditions: Escherichia coli
APEC O78 [3] = test: MIC and MBC determination in M63 media; assay type: cell-based, Escherichia coli
Method: (§2) One microlitre SM of each concentration was transferred to each well of a 96-well plate containing 100 µL of the 0.05 OD600 adjusted APEC O78 culture in M63 media. Growth was monitored in Sunrise - Absorbance microplate reader as described above. MIC was indicated by lowest concentration of SM with non-elevated OD600 measurement. MBC was determined by absence of APEC growth on LB agar plate following subculture. […] Two independent experiments were conducted.

APEC O78-53 = test: MIC and MBC determination in M63 media; assay type: cell-based; conditions: Escherichia coli; APEC O78-53, M63 media
Method: as §2

[4] = system: intracellular APEC O2 in Caco-2 cells; test: Intracellular survival assay; assay type: cell-based, Escherichia coli
Method: as §1

[5] = system: intracellular APEC O2 in HD11 cells; test: Intracellular survival assay; assay type: cell-based, Escherichia coli
Method: as §1

[6] = system: intracellular APEC O78 in HD11 cells; test: Intracellular survival assay; assay type: cell-based, Escherichia coli
Method: as §1

[7] = system: intracellular APEC O78 in Caco-2 cells; test: Intracellular survival assay; assay type: cell-based, Escherichia coli
Method: as §1

[8] = system: intracellular APEC O78 in THP-1 cells; test: Intracellular survival assay; assay type: cell-based, Escherichia coli
Method: as §1

[9] = system: intracellular APEC O1 in HD11 cells; test: Intracellular survival assay; assay type: cell-based, Escherichia coli
Method: as §1

[10] = system: intracellular APEC O2 in THP-1 cells; test: Intracellular survival assay; assay type: cell-based, Escherichia coli
Method: as §1

[11] = system: intracellular APEC O1 in THP-1 cells; test: Intracellular survival assay; assay type: cell-based, Escherichia coli
Method: as §1

[12] = system: intracellular APEC O1 in Caco-2 cells; test: Intracellular survival assay; assay type: cell-based, Escherichia coli
Method: as §1

[13] = system: biofilm embedded APEC O78; test: MBEC High-throughput (HTP) assay; assay type: cell-based, Escherichia coli
Method: The effect of cidal SMs against biofilm embedded APEC was determined using MBEC High-throughput (HTP) assay (Innovotech Inc., AB, Canada)[22]. Briefly, 150 μL of 0.05 OD600 adjusted APEC O78 culture was aliquoted into each well of the MBEC device containing polystyrene pegs and incubated at 37 °C for 36 h in LB media under stationary condition. […] The plate was incubated in the dark for 18 h at 37 °C with rotation at 110 rpm. The DMSO (1%) and […] media were used as positive and negative controls, respectively. Following incubation, MIC of SMs in challenged plate was recorded. The SMs exposed pegs were then transferred to a new 96-well plate containing PBS and sonicated for 30 mins (Aquasonic ultrasonic cleaner, VWR) to disrupt the biofilm. The sonicated suspensions were ten-fold serially diluted and plated on LB agar plate. Biofilm embedded APEC bacteria were enumerated and minimum biofilm eradication concentration (MBEC) of SMs were determined as described previously. Two independent experiments were conducted.

**Q.** How did the minimal effective concentration [1] turn out when `CC1CCCN(CCC(=O)c2ccc(Br)cc2)C1` (stereo not drawn) [SM1] was run?
**A.** The minimal effective concentration was at least 100 µM.

**Q.** What about the “260 nm absorbing materials in supernatant compared with DMSO” value (APEC O78 [2]) of the same compound?
**A.** The value was “significantly (P < 0.05, Student’s t-test) increased”.

**Q.** What about the “280 nm absorbing materials in supernatant compared with DMSO” value (APEC O78 [2]) of the same compound?
**A.** Its value is “significantly (P < 0.05, Student’s t-test) increased”.

**Q.** What about the “Absorbance 280 nm of treated supernatant” value (APEC O78 [2]; DMSO 2.58, superscript a P < 0.05 vs DMSO) of the same compound?
**A.** The value was 3.08^a.

**Q.** And the “Absorbance 260 nm of treated supernatant” value (APEC O78 [2]; DMSO 3.77, superscript a P < 0.05 vs DMSO)?
**A.** Its value is 4.00^a.

**Q.** What about the MBC (APEC O115) of the same compound?
**A.** Its MBC is 200 µM (≈ 62 µg/mL).

**Q.** And the MIC (APEC O115)?
**A.** The MIC was 200 µM (≈ 62 µg/mL).

**Q.** What about the MBC (APEC O2) of the same compound?
**A.** Its MBC is 200 µM (≈ 62 µg/mL).

**Q.** What about the MIC (APEC O2) of the same compound?
**A.** Its MIC is 200 µM (≈ 62 µg/mL).

**Q.** What about the “MBC relative to MIC” value (APEC O78 [3]) of the same compound?
**A.** Its value is “identical to MIC”.

**Q.** What about the MIC (APEC O78 [3]; Escherichia coli) of the same compound?
**A.** Its MIC is 200 µM (≈ 62 µg/mL).

**Q.** And the MBC (APEC O78 [3]; Escherichia coli, subculture on LB agar)?
**A.** The MBC was 200 µM (≈ 62 µg/mL).

**Q.** And the MBC (APEC O78-53)?
**A.** Its MBC is 200 µM (≈ 62 µg/mL).

**Q.** What about the MIC (APEC O78-53) of the same compound?
**A.** Its MIC is 200 µM (≈ 62 µg/mL).

**Q.** What about the minimal effective concentration ([4]; Escherichia coli, O2, Caco-2, 6 h treatment, read-out: SMs intracellular APEC clearance concentration) of the same compound?
**A.** The minimal effective concentration was over 400 µM.

**Q.** What about the “concentration at which the SM significantly (P < 0.01) reduced intracellular APEC (superscript of t-statistic)” value ([4]; O2, Caco-2, 6 h) of the same compound?
**A.** The value was “b (1X MIC)”.

**Q.** And the minimal effective concentration ([5]; Escherichia coli, O2, HD11, 6 h treatment, read-out: SMs intracellular APEC clearance concentration)?
**A.** The minimal effective concentration was 200 µM.

**Q.** And the “intracellular APEC clearance concentration as multiple of MIC (superscript)” value ([5]; O2, HD11)?
**A.** Its value is “a (1X MIC)”.

**Q.** And the “concentration at which the SM significantly (P < 0.01) reduced intracellular APEC (superscript of t-statistic)” value ([5]; O2, HD11, 6 h)?
**A.** Its value is “a (0.5X MIC)”.

**Q.** And the minimal effective concentration ([6]; Escherichia coli, O78, HD11, 6 h treatment, read-out: SMs intracellular APEC clearance concentration)?
**A.** Its minimal effective concentration is 200 µM.

**Q.** And the “intracellular APEC clearance concentration as multiple of MIC (superscript)” value ([6]; O78, HD11)?
**A.** Its value is “a (1X MIC)”.

**Q.** What about the “concentration at which the SM significantly (P < 0.01) reduced intracellular APEC (superscript of t-statistic)” value ([6]; O78, HD11, 6 h) of the same compound?
**A.** The value was “a (0.5X MIC)”.

**Q.** And the minimal effective concentration ([7]; Escherichia coli, O78, Caco-2, 6 h treatment, read-out: SMs intracellular APEC clearance concentration)?
**A.** The minimal effective concentration was 200 µM.

**Q.** What about the “intracellular APEC clearance concentration as multiple of MIC (superscript)” value ([7]; O78, Caco-2) of the same compound?
**A.** Its value is “a (1X MIC)”.

**Q.** And the “concentration at which the SM significantly (P < 0.01) reduced intracellular APEC (superscript of t-statistic)” value ([7]; O78, Caco-2, 6 h)?
**A.** Its value is “a (0.5X MIC)”.

**Q.** And the minimal effective concentration ([8]; Escherichia coli, O78, THP-1, 6 h treatment, read-out: SMs intracellular APEC clearance concentration)?
**A.** The minimal effective concentration was 200 µM.

**Q.** What about the “intracellular APEC clearance concentration as multiple of MIC (superscript)” value ([8]; O78, THP-1) of the same compound?
**A.** The value was “a (1X MIC)”.

**Q.** What about the “concentration at which the SM significantly (P < 0.01) reduced intracellular APEC (superscript of t-statistic)” value ([8]; O78, THP-1, 6 h) of the same compound?
**A.** The value was “a (0.5X MIC)”.

**Q.** What about the minimal effective concentration ([9]; Escherichia coli, O1, HD11, 6 h treatment, read-out: SMs intracellular APEC clearance concentration) of the same compound?
**A.** The minimal effective concentration was 400 µM.

**Q.** And the “concentration at which the SM significantly (P < 0.01) reduced intracellular APEC (superscript of t-statistic)” value ([9]; O1, HD11, 6 h)?
**A.** Its value is “a (0.5X MIC)”.

**Q.** And the minimal effective concentration ([10]; Escherichia coli, O2, THP-1, 6 h treatment, read-out: SMs intracellular APEC clearance concentration)?
**A.** Its minimal effective concentration is 200 µM.

**Q.** What about the “concentration at which the SM significantly (P < 0.01) reduced intracellular APEC (superscript of t-statistic)” value ([10]; O2, THP-1, 6 h) of the same compound?
**A.** The value was “b (1X MIC)”.

**Q.** What about the minimal effective concentration ([11]; Escherichia coli, O1, THP-1, 6 h treatment, read-out: SMs intracellular APEC clearance concentration) of the same compound?
**A.** The minimal effective concentration was 400 µM.

**Q.** What about the “intracellular APEC clearance concentration as multiple of MIC (superscript)” value ([11]; O1, THP-1) of the same compound?
**A.** The value was “b (2X MIC)”.

**Q.** What about the “concentration at which the SM significantly (P < 0.01) reduced intracellular APEC (superscript of t-statistic)” value ([11]; O1, THP-1, 6 h) of the same compound?
**A.** The value was “a (0.5X MIC)”.

**Q.** And the minimal effective concentration ([12]; Escherichia coli, O1, Caco-2, 6 h treatment, read-out: SMs intracellular APEC clearance concentration)?
**A.** Its minimal effective concentration is over 400 µM.

**Q.** What about the “concentration at which the SM significantly (P < 0.01) reduced intracellular APEC (superscript of t-statistic)” value ([12]; O1, Caco-2, 6 h) of the same compound?
**A.** The value was “b (1X MIC)”.

**Q.** What about the “MBEC as multiple of MIC (superscript)” value ([13]; 18 h challenge in M63 media) of the same compound?
**A.** The value was “d (4X MIC)”.

**Q.** What about the “MBEC as multiple of MIC” value ([13]; tested 0.5X to 8X MIC) of the same compound?
**A.** The value was 4 X MIC.

— PMC6193035, “Novel small molecules affecting cell membrane as potential therapeutics for avian pathogenic Escherichia coli” (Scientific Reports, 2018)
